Measurements from ChEMBL document CHEMBL1157480, “Petrosamine, a potent anticholinesterase pyridoacridine alkaloid from a Thai marine sponge Petrosia n. sp” (Bioorg Med Chem, 2008).

Target: Acetylcholinesterase (Torpedo californica, UniProt P04058)
Experiment: Inhibition of Torpedo californica AchE activity by Ellman's assay
Design: species or system Tetronarce californica

Acetylcholinesterase, sequence (P04058 whole entry): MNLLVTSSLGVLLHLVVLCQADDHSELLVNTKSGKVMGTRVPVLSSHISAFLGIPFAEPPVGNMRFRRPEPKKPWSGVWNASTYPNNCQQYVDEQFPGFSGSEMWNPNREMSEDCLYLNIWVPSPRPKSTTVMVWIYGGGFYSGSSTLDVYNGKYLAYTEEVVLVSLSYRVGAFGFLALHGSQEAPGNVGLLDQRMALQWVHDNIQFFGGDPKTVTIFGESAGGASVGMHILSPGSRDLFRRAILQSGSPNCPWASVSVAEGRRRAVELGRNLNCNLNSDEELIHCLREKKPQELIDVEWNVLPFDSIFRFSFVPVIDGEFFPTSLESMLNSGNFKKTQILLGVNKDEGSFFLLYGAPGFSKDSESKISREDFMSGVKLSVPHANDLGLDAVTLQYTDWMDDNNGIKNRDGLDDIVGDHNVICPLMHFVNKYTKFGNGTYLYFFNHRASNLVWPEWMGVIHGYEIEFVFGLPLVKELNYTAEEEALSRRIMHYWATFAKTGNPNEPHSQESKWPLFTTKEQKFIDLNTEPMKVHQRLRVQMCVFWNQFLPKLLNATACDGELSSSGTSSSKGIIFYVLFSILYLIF

Row | Structure (SMILES) | IC50
1 | Cn1cc2c(cc1=O)-c1nc3cc(Br)ccc3c3ccnc(c13)C2=O | > 300000 nM
2 | Cn1ccc2c3nc4cc(Br)ccc4c4c3c(c(=O)c-2c1)[N+](C)(C)CC4=O [PETROSAMINE] | 91 nM
